Entries after “also recorded” stand apart in the source; their conditions may differ. Read-outs that look alike come from different tables or passages of the source. Non-standard residues stand in square brackets, D forms with d. Residues, ends and D or L forms follow the SMILES beside them. No end group written: not given here. *: point of attachment. FITC = O=C1OC2(c3ccc(O)cc3Oc3cc(O)ccc32)c2ccc(NC(=S)*)cc21
How the values were obtained:
MCF 7 (breast cancer) = assay: Cell death by flow cytometry in malignant breast cells; assay type: cell-based; conditions: 50 μM, 48 hours
Description: The R9-caPeptide was evaluated for cytotoxic effects in non-malignant (MCF 10A) and malignant (MCF 7) breast cells (Table 6). The cells were treated with 50 μM R9-caPeptide for 48 hours and the extent of cell death was evaluated by flow cytometry. […] The significant level of cytotoxicity in breast cancer cells is likely due to enhanced binding interaction of caPeptide with specific DNA repair proteins in these cells, as indicated for example by the observed preferential binding of caPCNA for XPG protein, leading to an inhibition of DNA repair in these cells, and ultimately cell death.

[1] = system: U937 monocytic lymphoma cells; assay: Cytotoxicity/apoptosis of R9-linked caPCNA peptides in U937 cells by flow cytometry; assay type: cell-based; conditions: 24 hours; for cytotoxic activity / apoptosis: R9 up to 100 μM, caPeptide up to 200 μM; for % cancer cell death: 30 μM of peptide, flow cytometry
Description: First, it was tested whether or not the R9 sequence alone had any cytotoxic effect in U937 cells. The U937 cells were treated with up to 100 μM of the R9 sequence for 24 hours.
Once it was established that the R9 sequence promoted cellular uptake of the peptide, increasing amounts of R9-caPep were added to U937 cells to determine if the peptide's uptake would have any cytotoxic effect.
To verify that the cytotoxicity of the R9-caPep was due to the PCNA peptide sequence itself, a scrambled peptide using the same eight amino acids, R9-Scrambled, was prepared (Table 3).
The cancer associated epitope of PCNA is also part of the flexible IDCL region of PCNA. This region of PCNA is considered to have a disordered structure. Disordered regions in proteins are usually associated with protein-to-protein interaction sites. […] To determine which amino acids in the R9-caPep sequence are necessary for binding of the peptide to these proteins, peptide constructs were generated that mutated each amino acid individually to an alanine (Table 3). Each alanine mutant peptide of caPCNA was used to treat U937 cells for 24 hours. An amino acid that is important to protein binding would presumably show decreased cell cytotoxicity when it is substituted with an alanine. Those amino acids which are not critical for binding could be anticipated to show a cytotoxic level similar to that of the unsubstituted peptide. For a comparison of the potential cytotoxic effect of each of the alanine substituted R9-linked caPeptides, U937 cells were treated with 30 μM of peptide. […] It was observed that peptides containing an alanine substituted at position aa126 or aa133 show little cytotoxic activity and therefore were likely important for the peptide's activity.

[2] = system: HCC1937 cells lacking BRCA1; assay: MTT growth inhibition assay, HCC1937 cells lacking BRCA1; assay type: cell-based; conditions: for efficacy in MTT assay compared with the other peptides: HCC1937 and HCC1937+wild-type BRCA1 cells, 24 hours
Description: MTT [3-(4,5-dimethylthiazol-2-yl)-2,5-diphenyltetrazolium bromide] assays were conducted with caPeptides at a variety of time points both alone and in combination with a DNA damaging agent e.g., cisplatin in HCC1937 and HCC1937+wild-type BRCA1 cells. The MTT assay is based on the ability of a mitochondrial dehydrogenase enzyme from viable cells to cleave the tetrazolium rings of the pale yellow MTT dye and form dark blue formazan crystals. These formazan crystals are largely impermeable to cell membranes and thus accumulate within healthy cells. Solubilization of the cells by the addition of a detergent results in the liberation and solubilization of the crystals. The number of proliferating cells is directly proportional to the level of formazan product created. The color can then be quantified using a simple colorimetric assay. The results are read on a multiwall scanning spectrophotometer (ELISA reader). The peptides used in these experiments including caPeptide, Q131A ([…] (SEQ ID NO: 5)), and P129A ([…] (SEQ ID NO: 3)) were ordered and obtained from Anaspec (Fremont, Calif.). caPeptide was dissolved in sterile 1× PBS solution to create a 1.5 mM stock concentration. caPeptides with alanine substitutions (e.g., P129A (SEQ ID NO: 3) and Q131A (SEQ ID NO: 5)) were dissolved in sterile 1×PBS solution to create 1.0 mM stock solutions.
MTT assays: The efficacy of caPeptides were tested using the MTT assays: HCC1937 and HCC137+wildtype BRCA1 cells were grown in DMEM 1× (supplemented with 10% fetal bovine serum and 5% penicillin/streptomycin) and were plated at a densities of 5.5×10^3 or 7×10^3, respectively, in 96 well plates (100 μL total volume per well) and allowed to attach overnight in a 37° C. incubator (5% CO2). Then, caPeptide stock solution was diluted to final working concentrations in DMEM 1× (10% fetal bovine serum and 5% penicillin/streptomycin) of 150 μM, 100 μM, 75 μM, 50 μM, and 25 μM. Media was removed from cells and replaced with media containing caPeptide at various concentrations (200 μL total volume per well). Cells were cultured with caPeptide-containing media for 24, 48 or 72 hours. At the appropriate treatment timepoint, 20 μL MTT (5 mg/mL in PBS) reagent was added to each well and plates were incubated for an additional 4 hours. Media/dye solution was then aspirated and 200 μL DMSO was added to each well. Plates were rocked at room temperature for five minutes to dissolve crystals and transferred to an ELISA plate reader. Absorbance was measured at 550 nm. The extent to which caPeptides inhibited cell proliferation was calculated as a percentage of the absorbance in each well containing caPeptide relative to wells containing no caPeptide (negative control) for both HCC1937 and HCC1937+wild-type BRCA1 cells. […]

[3] = system: HCC1937+wild-type BRCA1 cells; assay: MTT growth inhibition assay, HCC1937+wild-type BRCA1 cells; assay type: cell-based
Description: As a genetically matched control, wild-type BRCA1 has been transduced into HCC1937 cells (referred to as HCC1937+wild-type BRCA1). HCC1937+wild-type BRCA1 cells were selected for maintenance of the vector using 1 μg/mL puromycin. All cells in these assays were used at passage numbers <25.
MTT [3-(4,5-dimethylthiazol-2-yl)-2,5-diphenyltetrazolium bromide] assays were conducted with caPeptides at a variety of time points both alone and in combination with a DNA damaging agent e.g., cisplatin in HCC1937 and HCC1937+wild-type BRCA1 cells. […] The color can then be quantified using a simple colorimetric assay. The results are read on a multiwall scanning spectrophotometer (ELISA reader). […]
MTT assays: The efficacy of caPeptides were tested using the MTT assays: HCC1937 and HCC137+wildtype BRCA1 cells were grown in DMEM 1× (supplemented with 10% fetal bovine serum and 5% penicillin/streptomycin) and were plated at a densities of 5.5×10^3 or 7×10^3, respectively, in 96 well plates (100 μL total volume per well) and allowed to attach overnight in a 37° C. incubator (5% CO2). […] Plates were rocked at room temperature for five minutes to dissolve crystals and transferred to an ELISA plate reader. Absorbance was measured at 550 nm. […]

U937 cells [4] = conditions: 100 nM of doxorubicin alone
U937 cells [5] = assay: cells; conditions: Homo sapiens, U-937, 24 h
U937 cells [6] = assay: Cellular uptake and nuclear localization by fluorescence microscopy; assay type: cell-based; conditions: 10 μM, 24 hours, DAPI overlay
Description: To test cellular uptake and nuclear localization of R9-caPep, an N-terminal fluorescein isothiocyanate (FITC) residue was attached to allow microscopic visualization of the peptide's cellular location. The U937 cells were treated with 10 μM of FITC-R9-caPep for 24 hours. The cells were then collected onto a poly-L-lysine coated slide by cytospin and mounted with a media containing the DNA staining dye 4′-6-Diamidino-2-phenylindole (DAPI), which complexes with double stranded DNA and indicates the location of the nucleus. A Leica DM500 fluorescent microscope was used to visualize the staining.

For `CC[C@H](C)[C@H](NC(=O)CNC(=O)[C@H](CC(C)C)NC(=O)[C@H](CS)NC(=O)[C@H](CS)NC(=O)[C@@H](CCCNC(=N)N)NC(=O)[C@@H](CCCNC(=N)N)NC(=O)[C@@H](CCCNC(=N)N)NC(=O)[C@@H](CCCNC(=N)N)NC(=O)[C@@H](CCCNC(=N)N)NC(=O)[C@@H](CCCNC(=N)N)NC(=O)[C@@H](CCCNC(=N)N)NC(=O)[C@@H](CCCNC(=N)N)NC(=O)[C@H](N)CCCNC(=N)N)C(=O)N1CCC[C@H]1C(=O)N[C@@H](CCC(=O)O)C(=O)N[C@@H](CCC(N)=O)C(=O)N[C@@H](CCC(=O)O)C(=O)N[C@@H](Cc1ccc(O)cc1)C(=O)O` [R9-caPep], the “cytotoxicity for malignant breast cells (MCF7) relative to non-malignant breast cells (MCF10A)” value (MCF 7 (breast cancer)) was “approximately five times more cytotoxic”.

`CC[C@H](C)[C@H](NC(=O)CNC(=O)[C@@H](N)CC(C)C)C(=O)N1CCC[C@H]1C(=O)N[C@@H](CCC(=O)O)C(=O)N[C@@H](CCC(N)=O)C(=O)N[C@@H](CCC(=O)O)C(=O)N[C@@H](Cc1ccc(O)cc1)C(=O)O` [caPeptide] (H-LGIPEQEY-OH) was tested, and the “cytotoxic activity / apoptosis” value [1] was “did not have any cytotoxic activity; also recorded: no increase in apoptosis”.

For `N.N.[Cl][Pt][Cl]` [cisplatin, reference compound], the IC50 ([2]; HCC1937 cells lacking BRCA1, with R9-PCNA peptide 60 μM, read-out: IC50 value for R9-PCNA peptide (60 μM)+cisplatin) was about 20 µM, the “sensitivity of the cells to cisplatin” value ([2]; HCC1937 cells, cisplatin alone) was “relatively resistant” and the “sensitivity of the cells to cisplatin” value ([3]; HCC1937+wild-type BRCA1 cells, cisplatin alone) was “relatively resistant”. It also gave an IC50 ([3]; HCC1937 cells with BRCA1, with R9-PCNA peptide 60 μM, read-out: IC50 value for R9-PCNA peptide (60 μM)+cisplatin) of about 100 µM.

For `COc1cccc2c1C(=O)c1c(O)c3c(c(O)c1C2=O)C[C@@](O)(C(=O)CO)C[C@@H]3O[C@H]1C[C@H](N)[C@H](O)[C@H](C)O1` [doxorubicin], the cell death (U937 cells [4]) was 30%, the IC50 (U937 cells [5]; read-out: IC50 of doxorubicin, U937 cells, 24 hours, doxorubicin alone) was about 0.14 µM and the IC50 (U937 cells [5]; read-out: IC50 of doxorubicin, U937 cells, 24 hours, with 25 μM of R9-caPep) was about 0.11 µM.

In the case of “FITC-RRRRRRRRRCCLGIPEQEY ({FITC}-[dR][dR][dR][dR][dR][dR][dR][dR][dR]CCLGIPEQEY; cysteine pairing not given here) [FITC-R9-caPep, R9-caPep with an N-terminal fluorescein isothiocyanate (FITC) residue]”, the “cellular uptake and nuclear localization” value (U937 cells [6]) is reported as “internalized by the cells and was accessible to the nucleus”.

LGIAEQEY [P129A] was tested, and the “efficacy in MTT assay compared with the other peptides” value [2] was “enhanced efficacy in comparison to wild-type peptides”.

LGIPEAEY [Q131A] was tested, and the “efficacy in MTT assay compared with the other peptides” value [2] was “enhanced efficacy in comparison to wild-type peptides; also recorded: more effective of these peptides tested”.

With RRRRRRRRR [R9, reference compound] the “cytotoxic activity / apoptosis” value [1] was “did not promote apoptosis; also recorded: did not cause an increase apoptosis”.

In the case of RRRRRRRRRCCAGIPEQEY [A1-sub. Peptide], the “% cancer cell death” value [1] is reported as 8 ± 9%.

With RRRRRRRRRCCLAIPEQEY [A2-sub. Peptide] the “% cancer cell death” value [1] was 47 ± 13%.

In the case of RRRRRRRRRCCLGAPEQEY [A3-sub. Peptide], the “% cancer cell death” value [1] is reported as 21 ± 12%.

In the case of RRRRRRRRRCCLGIAEQEY [A4-sub. Peptide], the “% cancer cell death” value [1] is reported as 80 ± 7%.

In the case of RRRRRRRRRCCLGIPAQEY [A5-sub. Peptide], the “% cancer cell death” value [1] is reported as 45 ± 14%.

In the case of RRRRRRRRRCCLGIPEAEY [A6-sub. Peptide], the “% cancer cell death” value [1] is reported as 93 ± 7%.

With RRRRRRRRRCCLGIPEQAY [A7-sub. Peptide] the “% cancer cell death” value [1] was 88 ± 4%.

RRRRRRRRRCCLGIPEQEA [A8-sub. Peptide] was tested, and the “% cancer cell death” value [1] was 7 ± 6%.

Source: patent US8278278B2, “Cell proliferation reducing cancer specific PCNA peptides” (Indiana University Research and Technology Corporation, priority 2008, dated 2012)
